Assay results from patent US20220289679A1, “HETEROCYCLIC COMPOUND” (Takeda Pharmaceutical Company Limited, priority 2019, published 2022).

The compounds below were run against T1, human GCS (glucosylceramide synthase) (Homo sapiens, UniProt Q16739) (assay: Glucosylceramide Synthase (GCS) Assay). Details: test compound 10 μM; microsome fraction of Expi293F cells expressing human GCS; 1.7 μM UDP-glucose, 3 μM C8 ceramide; room temperature 60 min; C8 glucosylceramide by Rapidfire MS/MS; read-out: GCS enzyme inhibitory rate at 10 μM (%).
T1 construct: made in house; host or cells: Expi293F cells (transient expression; microsome fraction)
T1 sequence (Q16739 1-394): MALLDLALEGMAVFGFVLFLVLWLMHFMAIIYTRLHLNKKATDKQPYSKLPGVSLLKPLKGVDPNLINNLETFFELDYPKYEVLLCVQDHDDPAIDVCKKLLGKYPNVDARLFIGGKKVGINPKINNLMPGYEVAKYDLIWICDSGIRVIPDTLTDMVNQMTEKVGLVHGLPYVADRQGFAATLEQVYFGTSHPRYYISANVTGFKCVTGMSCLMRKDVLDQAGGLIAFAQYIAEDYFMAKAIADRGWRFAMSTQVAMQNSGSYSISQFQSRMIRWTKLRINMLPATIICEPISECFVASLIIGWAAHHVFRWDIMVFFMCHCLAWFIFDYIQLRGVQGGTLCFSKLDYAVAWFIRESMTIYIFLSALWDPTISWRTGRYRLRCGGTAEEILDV
Assay type: biochemical
Experimental: In enzyme assay, a microsome fraction obtained by transient expression by Expi293F™ cells (catalog number: A14527, Thermo Fisher Scientific) was used as a glucosylceramide synthase source. Liposomal C8 ceramide and UDP-glucose were used as substrates. For each substrate concentration, 1.7 μM UDP-glucose, which is equal to the Km value, and 3 μM C8 ceramide were used. After the enzymatic reaction, the analysis was performed with Rapidfire MS/MS (API-4000™, SCIEX), and C8 glucosylceramide was quantified to evaluate the inhibitory activity of the test compound against glucosylceramide synthase activity.
PcDNA3.3TOPO vector (catalog number: K830001, Thermo Fisher Scientific) into which the human GCS gene was inserted was introduced into Expi293F™ Cells (catalog number: A14527, Thermo Fisher Scientific) by using ExpiFectamine™ 293 Transfection Kit (catalog number: A14525, Thermo Fisher Scientific). The cultured cells were dissolved in D-PBS (catalog number: 048-29805, Fuji Film Wako Pure Chemical Industries, Ltd.) containing 1 mM PMSF, and the solution was allowed to stand on ice for 30 minutes, and then subjected to cell disruption (homogenized). The disruption solution was centrifuged at 10,000×g for 20 minutes at 4° C., and the obtained supernatant was centrifuged at 142,400×g for 60 minutes at 4° C. The obtained precipitate was resuspended in a D-PBS solution containing 1 mM PMSF, and homogenized again to prepare as a microsome fraction. Protein quantification was performed by the CBB method.
A 1 mM compound solution prepared by dissolving the test compound in DMSO was added to a 384-well plate by 100 nL so that the final concentration of the test compound was 10 μM. Next, a substrate solution consisting of 3.4 μM UDP-glucose and 6 μM C8 ceramide was added by 5 μL, followed by an enzyme solution consisting of a 25 μg/mL microsome fraction by 5 μL. C8 ceramide was prepared from liposomes composed of 15 mol % C8 ceramide and 85 mol % dioleoyl phosphatidylcholine (1,2-dioleoyl-sn-glycero-3-phosphocholine: DOPC). The enzymatic reaction was carried out in a solution consisting of 20 mM tris-hydrochloric acid buffer (pH 7.5), 0.01% Tween 20, 0.01% bovine serum albumin and 1 mM dithiothreitol at room temperature for 60 min. Then, a solution consisting of 75% isopropanol and 1% formic acid containing 0.25 μM N-Octadecanoyl-D35-psichosine (catalog number: 1914, Matreya) as an internal standard substance was added by 60 μL to stop the enzymatic reaction. 5 μL of the centrifugal supernatant of the obtained reaction product was analyzed by Rapidfire MS/MS (Agilent Technologies) using API-4000™ (SCIEX), and the C8 glucosylceramide was quantified to evaluate the inhibitory activity of the test compound against the glucosylceramide synthase activity. The inhibitory activity of the test compound was evaluated when the C8 glucosylceramide level in the enzyme-free solution was considered as 100% inhibitory and the enzyme activity of the DMSO group in the absence of the compound was considered as 0% inhibitory.

SMILES | inhibition at 10 µM [%]
O=C(Nc1ccn(CC2CC2(F)F)n1)c1cccn(-c2ccc(F)cc2OCC(F)(F)F)c1=O (racemic) [Example 55, rac-N-{1-[(2,2-difluorocyclopropyl)methyl]-1H-pyrazol-3-yl}-1-[4-fluoro-2-(2,2,2-trifluoroethoxy)phenyl]-2-oxo-1,2-dihydropyridine-3-carboxamide] | 88
CC(F)(F)COc1ccccc1-n1cccc(C(=O)Nc2ccc(C(C)(C)O)cc2)c1=O [Example 99, 1-[2-(2,2-difluoropropoxy)phenyl]-N-[4-(2-hydroxypropan-2-yl)phenyl]-2-oxo-1,2-dihydropyridine-3-carboxamide] | 99
COc1ccccc1-n1cccc(C(=O)Nc2ccc(Oc3ccccc3)cc2)c1=O [Example 2, 1-(2-methoxyphenyl)-2-oxo-N-(4-phenoxyphenyl)-1,2-dihydropyridine-3-carboxamide] | 95
N#Cc1cc(F)ccc1-n1cccc(C(=O)Nc2ccc(Oc3ccccc3)cc2)c1=O [Example 30, 1-(2-cyano-4-fluorophenyl)-2-oxo-N-(4-phenoxyphenyl)-1,2-dihydropyridine-3-carboxamide] | 55
O=C(Nc1ccc(C2(O)CCC2)cc1)c1cccn(-c2ccccc2OCC(F)(F)F)c1=O [Example 96, N-[4-(1-hydroxycyclobutyl)phenyl]-2-oxo-1-[2-(2,2,2-trifluoroethoxy)phenyl]-1,2-dihydropyridine-3-carboxamide] | 100
O=C(Nc1ccc(C2(O)CC2)cc1)c1cccn(-c2ccc(F)cc2OCC(F)(F)F)c1=O [Example 69, 1-[4-fluoro-2-(2,2,2-trifluoroethoxy)phenyl]-N-[4-(1-hydroxycyclopropyl)phenyl]-2-oxo-1,2-dihydropyridine-3-carboxamide] | 99
COC(C)(C)c1ccc(NC(=O)c2cccn(-c3ccccc3OCC(F)(F)F)c2=O)cn1 [Example 92, N-[6-(2-methoxypropan-2-yl)pyridin-3-yl]-2-oxo-1-[2-(2,2,2-trifluoroethoxy)phenyl]-1,2-dihydropyridine-3-carboxamide] | 95
COC(C)(C)c1ccc(NC(=O)c2cccn(-c3ccc(F)cc3OCC(F)(F)F)c2=O)cn1 [Example 91, 1-[4-fluoro-2-(2,2,2-trifluoroethoxy)phenyl]-N-[6-(2-methoxypropan-2-yl)pyridin-3-yl]-2-oxo-1,2-dihydropyridine-3-carboxamide] | 89
O=C(Nc1ccc(OCC(F)(F)F)nc1)c1cccn(-c2ccnnc2OCC(F)(F)F)c1=O [Example 79, 2-oxo-1-[3-(2,2,2-trifluoroethoxy)pyridazin-4-yl]-N-[6-(2,2,2-trifluoroethoxy)pyridin-3-yl]-1,2-dihydropyridine-3-carboxamide] | 87
O=C(Nc1ccc(C(O)C2CC2)nc1)c1cccn(-c2ccc(F)cc2OCC(F)(F)F)c1=O (racemic) [Example 75, rac-N-{6-[cyclopropyl(hydroxy)methyl]pyridin-3-yl}-1-[4-fluoro-2-(2,2,2-trifluoroethoxy)phenyl]-2-oxo-1,2-dihydropyridine-3-carboxamide] | 96

The remaining lines, values ahead:

inhibition at 10 µM [%] | SMILES
100 | Cn1cc(C(=O)Nc2ccc(C(C)(C)O)cc2)c(=O)c(-c2ccccc2OCC(F)(F)F)n1 [Example 166, N-[4-(2-hydroxypropan-2-yl)phenyl]-2-methyl-5-oxo-6-[2-(2,2,2-trifluoroethoxy)pheny]-2,5-dihydropyridazine-4-carboxamide]
96 | CC(C)(O)c1ccc(NC(=O)c2cccn(-c3cccnc3OCC(F)(F)F)c2=O)cc1 [Example 114, N-[4-(2-hydroxypropan-2-yl)phenyl]-2-oxo-2′-(2,2,2-trifluoroethoxy)-2H-[1,3′-bipyridine]-3-carboxamide]
74 | CC(C)(O)c1ccc(NC(=O)c2cccn(-c3ncncc3OCC(F)(F)F)c2=O)cn1 [Example 119, N-[6-(2-hydroxypropan-2-yl)pyridin-3-yl]-2-oxo-1-[5-(2,2,2-trifluoroethoxy)pyrimidin-4-yl]-1,2-dihydropyridine-3-carboxamide]
100 | CC(C)(O)c1cc(C(=O)Nc2ccc(C(C)(C)C#N)cc2)c(=O)n(-c2ccccc2OCC(F)(F)F)n1 [Example 201, N-[4-(2-cyanopropan-2-yl)phenyl]-6-(2-hydroxypropan-2-yl)-3-oxo-2-[2-(2,2,2-trifluoroethoxy)phenyl]-2,3-dihydropyridazine-4-carboxamide]
99 | C=C(C)c1ccc(NC(=O)c2cc(C(C)(C)O)nn(-c3ccccc3OCC(F)(F)F)c2=O)cc1 [Example 203, 6-(2-hydroxypropan-2-yl)-3-oxo-N-[4-(prop-1-en-2-yl)phenyl]-2-[2-(2,2,2-trifluoroethoxy)phenyl]-2,3-dihydropyridazine-4-carboxamide]
74 | CC(C)(O)c1ccc(NC(=O)c2cccn(-c3cccnc3OCC(F)(F)F)c2=O)cn1 [Example 120, N-[6-(2-hydroxypropan-2-yl)pyridin-3-yl]-2-oxo-2′-(2,2,2-trifluoroethoxy)-2H-[1,3′-bipyridine]-3-carboxamide]
96 | CC(C)(O)c1ccc(NC(=O)c2cn(CC3COC3)nc(-c3ccccc3OCC(F)F)c2=O)cc1 [Example 180, 6-[2-(2,2-difluoroethoxy)phenyl]-N-[4-(2-hydroxypropan-2-yl)phenyl]-2-[(oxetan-3-yl)methyl]-5-oxo-2,5-dihydropyridazine-4-carboxamide]
98 | Cc1cc(NC(=O)c2ccnn(-c3ccccc3OCC(F)F)c2=O)ccc1C(C)(C)O [Example 142, 2-[2-(2,2-difluoroethoxy)phenyl]-N-[4-(2-hydroxypropan-2-yl)-3-methylphenyl]-3-oxo-2,3-dihydropyridazine-4-carboxamide]
98 | CC(C)(O)c1ccc(NC(=O)c2cccn(-c3ccc(F)c(F)c3OCC(F)(F)F)c2=O)cc1 [Example 111, 1-[3,4-difluoro-2-(2,2,2-trifluoroethoxy)phenyl]-N-[4-(2-hydroxypropan-2-yl)phenyl]-2-oxo-1,2-dihydropyridine-3-carboxamide]
90 | O=C(Nc1ccc(F)cc1F)c1cn(C2COC2)nc(-c2ccccc2OCC(F)F)c1=O [Example 182, 6-[2-(2,2-difluoroethoxy)phenyl]-N-(2,4-difluorophenyl)-2-(oxetan-3-yl)-5-oxo-2,5-dihydropyridazine-4-carboxamide]
100 | O=C(Nc1ccc(C(O)(C(F)F)C(F)F)nc1)c1ccnn(-c2ccccc2OCC(F)(F)F)c1=O [Example 162, 3-oxo-N-[6-(1,1,3,3-tetrafluoro-2-hydroxypropan-2-yl)pyridin-3-yl]-2-[2-(2,2,2-trifluoroethoxy)phenyl]-2,3-dihydropyridazine-4-carboxamide]
65 | CCOC(=O)c1ccc(NC(=O)c2cc(C)nn(-c3ccccc3OCC(F)F)c2=O)s1 [Example 170, ethyl 5-({2-[2-(2,2-difluoroethoxy)phenyl]-6-methyl-3-oxo-2,3-dihydropyridazine-4-carbonyl}amino)thiophene-2-carboxylate]
99 | CC(O)c1ccc(NC(=O)c2ccnn(-c3ccccc3OCC(F)(F)F)c2=O)cc1 (racemic) [Example 138, rac-N-[4-(1-hydroxyethyl)phenyl]-3-oxo-2-[2-(2,2,2-trifluoroethoxy)phenyl]-2,3-dihydropyridazine-4-carboxamide]
